# Experimental data published in patent US20150105252A1, “SUBSTITUTED PYRAZOLES AS HERBICIDES” (E I DU PONT DE NEMOURS AND COMPANY, priority 2013, published 2015).
# What was measured:
# [1] = tested on: wheat, winter; experiment: Test D preemergence; type: in vivo, Triticum aestivum; details: scale 0 to 100
# In short: (§1)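 Postemergence activity was tested on plants at the 1- to 4-leaf stage (2–18 cm) grown in peat-based medium, and preemergence activity on seeds in silt loam, with chemicals in a surfactant-containing non-phytotoxic solvent. Controlled-environment growth lasted 14–21 days before visual 0–100 scoring.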
# [2] = tested on: wheat, spring; experiment: Test D preemergence; type: in vivo, Triticum aestivum; details: scale 0 to 100
# In short: as §1
# [3] = tested on: bluegrass; experiment: Test D preemergence; type: in vivo, Poa annua; details: scale 0 to 100
# Source text: (§2) Seeds of plant species selected from bluegrass (annual bluegrass, Poa annua), blackgrass (Alopecurus myosuroides), canarygrass (littleseed canarygrass, Phalaris minor), chickweed (common chickweed, Stellaria media), galium (catchweed bedstraw, Galium aparine), bromegrass, downy (downy bromegrass, Bromus tectorum), field poppy (Papaver rhoeas), field violet (Viola arvensis), foxtail, green (green foxtail, Setaria viridis), deadnettle (henbit deadnettle, Lamium amplexicaule), ryegrass, Italian (Italian ryegrass, Lolium multiflorum), kochia (Kochia scoparia), lambsquarters (Chenopodium album), oilseed rape (Brassica napus), pigweed (redroot pigweed, Amaranthus retroflexus), chamomile (scentless chamomile, Matricaria inodora), speedwell (bird's-eye speedwell, Veronica persica), barley, spring (spring barley, Hordeum vulgare), wheat, spring (spring wheat, Triticum aestivum), buckwheat, wild (wild buckwheat, Polygonum convolvulus), mustard, wild (wild mustard, Sinapis arvensis), oat, wild (wild oat, Avena fatua), radish, wild (wild radish, Raphanus raphanistrum), windgrass (Apera spica-venti), Russian thistle (Salsola kali), barley, winter (winter barley, Hordeum vulgare), and wheat, winter (winter wheat, Triticum aestivum) were planted into a silt loam soil and treated preemergence with test chemicals formulated in a non-phytotoxic solvent mixture which included a surfactant.
# (§3) At the same time, these species were planted in pots containing Redi-Earth® planting medium (Scotts Company, 14111 Scottslawn Road, Marysville, Ohio 43041) comprising spaghnum peat moss, vermiculite, wetting agent and starter nutrients and treated with postemergence applications of the test chemicals formulated in the same manner. Plants ranged in height from 2 to 18 cm (1- to 4-leaf stage). Treated plants and controls were maintained in a controlled growth environment for 14 to 21 days after which time all species were compared to controls and visually evaluated. Plant response ratings, summarized in Table D, are based on a scale of 0 to 100 where 0 is no effect and 100 is complete control. A dash (-) response means no test result.
# [4] = tested on: kochia; experiment: Test D postemergence; type: in vivo, Kochia scoparia; details: scale 0 to 100
# Source text: as §2, §3
# [5] = tested on: Surinam grass; experiment: Test F preemergence; type: in vivo, Brachiaria decumbens
# Source text: (§4) Seeds of plant species selected from corn (Zea mays), soybean (Glycine max), velvetleaf (Abutilon theophrasti), lambsquarters (Chenopodium album), wild poinsettia (Euphorbia heterophylla), pigweed, palmer (palmer pigweed, Amaranthus palmeri), common waterhemp (Amaranthus rudis), surinam grass (Brachiaria decumbens), large crabgrass (Digitaria sanguinalis), crabgrass, Brazil (Brazilian crabgrass, Digitaria horizontalis), fall panicum (Panicum dichotomiflorum), giant foxtail (Setaria faberii), green foxtail (Setaria viridis), goosegrass (Eleusine indica), johnsongrass (Sorghum halepense), common ragweed (Ambrosia elation), barnyardgrass (Echinochloa crus-galli), southern sandbur (Cenchrus echinatus), arrowleaf sida (Sida rhombifolia), Italian ryegrass (Lolium multiflorum), dayflower, VA (Virginia (VA) dayflower, Commelina virginica), field bindweed (Convolvulus arvensis), cocklebur (common cocklebur, Xanthium strumarium), morningglory (Ipomoea coccinea), nightshade (eastern black nightshade, Solanum ptycanthum), kochia (Kochia scoparia), yellow nutsedge (Cyperus esculentus), and hairy beggarticks (Bidens pilosa), were planted into a silt loam soil and treated preemergence with test chemicals formulated in a non-phytotoxic solvent mixture which included a surfactant.
# (§5) At the same time, plants from these crop and weed species and also horseweed (Canada horseweed, Conyza canadensis), smartweed (ladysthumb smartweed, Polygonum persicaria), waterhemp_RES1, (ALS & Triazine resistant common waterhemp, Amaranthus rudis), and waterhemp_RES2, (ALS & HPPD resistant common waterhemp, Amaranthus rudis) were treated with postemergence applications of test chemicals formulated in the same manner. Plants ranged in height from 2 to 18 cm for postemergence treatments (1- to 4-leaf stage). Treated plants and controls were maintained in a greenhouse for 14 to 21 days, after which time all species were compared to controls and visually evaluated. Plant response ratings, summarized in Table F, are based on a scale of 0 to 100 where 0 is no effect and 100 is complete control. A dash (-) response means no test result.
# [6] = tested on: kochia; experiment: Test D preemergence; type: in vivo, Kochia scoparia; details: scale 0 to 100
# In short: as §1
# [7] = tested on: speedwell; experiment: Test D preemergence; type: in vivo, Veronica persica; details: scale 0 to 100
# Source text: as §2, §3
# [8] = tested on: radish, wild; experiment: Test D postemergence; type: in vivo, Raphanus raphanistrum; details: scale 0 to 100
# In short: as §1
# [9] = tested on: kochia; experiment: Test F preemergence; type: in vivo, Kochia scoparia
# Source text: as §4, §5
# [10] = tested on: foxtail, green; experiment: Test D postemergence; type: in vivo, Setaria viridis; details: scale 0 to 100
# Source text: as §2, §3
# [11] = tested on: hairy beggarticks; experiment: Test F preemergence; type: in vivo, Bidens pilosa
# Source text: as §4, §5
# [12] = tested on: blackgrass; experiment: Test D postemergence; type: in vivo, Alopecurus myosuroides; details: scale 0 to 100
# In short: as §1
# [13] = tested on: goosegrass; experiment: Test F preemergence; type: in vivo, Eleusine indica
# In short: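 Greenhouse study; evaluation window 14–21 days post-treatment. Seedlings sprayed postemergence measured 2–18 cm, while preemergence treatments went on silt loam soil. Non-phytotoxic solvent mixture with surfactant served as vehicle; response assessed by eye, 0–100 scale.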
# [14] = tested on: windgrass; experiment: Test D postemergence; type: in vivo, Apera spica-venti; details: scale 0 to 100
# Source text: as §2, §3
# [15] = Preemergence, 31 g ai/ha, scale 0 to 100
# [16] = Preemergence, 62 g ai/ha, scale 0 to 100
# [17] = Preemergence, 125 g ai/ha, scale 0 to 100
# [18] = preemergence, 8 g ai/ha, scale 0 to 100, 100 is complete control
# [19] = preemergence, 16 g ai/ha, scale 0 to 100, 100 is complete control
compound,measurement,setting,value
"CCc1cc(C(=O)NCC(F)(F)F)nn1Cc1ccnc(C(F)(F)F)c1 [Compound 78, 5-ethyl-N-(2,2,2-trifluoroethyl)-1-[[(2-trifluoromethyl)-4-pyridinyl]methyl]-1H-pyrazole-3-carboxamide]","Plant response rating, Wheat, Winter",[1]; 31 g ai/ha,15
same,"Plant response rating, Wheat, Winter",[1]; 62 g ai/ha,50
same,"Plant response rating, Wheat, Winter",[1]; 125 g ai/ha,80
same,"Plant response rating, Wheat, Winter",[1]; 250 g ai/ha,95
same,"Plant response rating, Wheat, Spring",[2]; 31 g ai/ha,5
same,"Plant response rating, Wheat, Spring",[2]; 62 g ai/ha,55
same,"Plant response rating, Wheat, Spring",[2]; 125 g ai/ha,80
same,"Plant response rating, Wheat, Spring",[2]; 250 g ai/ha,100
same,"Plant response rating, Bluegrass",[3]; 31 g ai/ha,50
same,"Plant response rating, Bluegrass",[3]; 62 g ai/ha,80
same,"Plant response rating, Bluegrass",[3]; 125 g ai/ha,95
same,"Plant response rating, Bluegrass",[3]; 250 g ai/ha,100
same,Kochia plant response rating,"[4]; Postemergence, 31 g ai/ha",75
same,Kochia plant response rating,"[4]; Postemergence, 125 g ai/ha",80
same,Kochia plant response rating,"[4]; Postemergence, 250 g ai/ha",75
same,Kochia plant response rating,"[4]; postemergence, 62 g ai/ha",80
same,"Plant response rating, Surinam Grass",[5]; [15],50
same,"Plant response rating, Surinam Grass",[5]; [16],75
same,"Plant response rating, Surinam Grass",[5]; [17],100
same,"Plant response rating, Surinam Grass",[5]; [18],20
same,"Plant response rating, Surinam Grass",[5]; [19],20
same,"Plant response rating, Kochia",[6]; 31 g ai/ha,95
same,"Plant response rating, Kochia",[6]; 62 g ai/ha,100
same,"Plant response rating, Kochia",[6]; 125 g ai/ha,100
same,"Plant response rating, Kochia",[6]; 250 g ai/ha,100
same,"Plant response rating, Speedwell",[7]; 31 g ai/ha,100
same,"Plant response rating, Speedwell",[7]; 62 g ai/ha,100
same,"Plant response rating, Speedwell",[7]; 125 g ai/ha,100
same,"Plant response rating, Speedwell",[7]; 250 g ai/ha,100
same,"Radish, Wild plant response rating","[8]; Postemergence, 31 g ai/ha",40
same,"Radish, Wild plant response rating","[8]; Postemergence, 125 g ai/ha",60
same,"Radish, Wild plant response rating","[8]; Postemergence, 250 g ai/ha",75
same,"Radish, Wild plant response rating","[8]; postemergence, 62 g ai/ha",50
same,"Plant response rating, Kochia",[9]; [15],100
same,"Plant response rating, Kochia",[9]; [16],100
same,"Plant response rating, Kochia",[9]; [17],100
same,"Plant response rating, Kochia",[9]; [18],40
same,"Plant response rating, Kochia",[9]; [19],65
same,"Foxtail, Green plant response rating","[10]; Postemergence, 31 g ai/ha",25
same,"Foxtail, Green plant response rating","[10]; Postemergence, 125 g ai/ha",70
same,"Foxtail, Green plant response rating","[10]; Postemergence, 250 g ai/ha",80
same,"Foxtail, Green plant response rating","[10]; postemergence, 62 g ai/ha",60
same,"Plant response rating, Hairy Beggarticks",[11]; [15],25
same,"Plant response rating, Hairy Beggarticks",[11]; [16],35
same,"Plant response rating, Hairy Beggarticks",[11]; [17],80
same,"Plant response rating, Hairy Beggarticks",[11]; [18],0
same,"Plant response rating, Hairy Beggarticks",[11]; [19],20
same,Blackgrass plant response rating,"[12]; Postemergence, 31 g ai/ha",5
same,Blackgrass plant response rating,"[12]; Postemergence, 125 g ai/ha",30
same,Blackgrass plant response rating,"[12]; Postemergence, 250 g ai/ha",65
same,Blackgrass plant response rating,"[12]; postemergence, 62 g ai/ha",10
same,"Plant response rating, Goosegrass",[13]; [15],90
same,"Plant response rating, Goosegrass",[13]; [16],90
same,"Plant response rating, Goosegrass",[13]; [17],100
same,"Plant response rating, Goosegrass",[13]; [18],5
same,"Plant response rating, Goosegrass",[13]; [19],40
same,Windgrass plant response rating,"[14]; Postemergence, 31 g ai/ha",10
same,Windgrass plant response rating,"[14]; Postemergence, 125 g ai/ha",35
same,Windgrass plant response rating,"[14]; Postemergence, 250 g ai/ha",60
same,Windgrass plant response rating,"[14]; postemergence, 62 g ai/ha",20
